Assay results: US7139415B2, “Robotic microscopy systems” (The Regents of the University of California, priority 2001, dated 2006)

Legend:
GFP transfected neurons = type: cell-based; conditions: in the presence of extracellular EtHD
Experimental: (§1) If the “loss” of GFP corresponded to the death of a neuron, that the loss of GFP positive neurons could be quantified over time as a measure of neuronal survival. To test whether the “loss” of GFP corresponded to the death of a neuron, the loss of GFP in transfected neurons was measured at the same time as the loss of membrane integrity using a membrane impermeant nuclear dye, ethidium homodimer (EtHD). EtHD staining of cell nuclei is taken as a positive sign of death in the widely used “LIVE-DEAD” assay.
FIG. 16A is a panel of photographs exemplifying application of an automated imaging system to the study of neuronal survival, and showing that loss of GFP fluorescence correlates with a loss of membrane integrity and nuclear staining with ethidium homodimer. […] Between 60 (not shown) and 75 minutes, GFP fluorescence is abruptly lost from one neuron and its nucleus stains positively for EtHD. Later, the other transfected neuron in the image loses GFP fluorescence and stains positively for EtHD. […] Thus, overall, the GFP fluorescence of particular neurons disappeared eventually but abruptly, and at that same moment, the nuclei of those neurons stained positively with EtHD (FIG. 16A). Thus, the loss of GFP fluorescence correlated well with one widely accepted measure of cell death.

[1] = system: neurons transfected with GFP; assay: Automated imaging of survival of GFP-transfected neurons; type: cell-based; conditions: kainate added 24 or 76 hours after transfection, compared with untreated sister culture
Experimental: as §1
Next, expression of the transfection marker GFP was tested for its affect on survival. FIG. 16E is a graph showing the results of a parallel experiment, in which the survival of transfected neurons in two sister cultures was compared. One culture was imaged once at the end of the experiment (hatched bar) and the other was imaged both a day after transfection and at the end of the experiment (solid bars). The two cultures show nearly identical survival. Finally, if this approach is a valid way to measure neuronal survival, it should be able to detect the effects of molecules known to regulate survival. First, the ability to detect the neurotoxicity of kainic acid was tested. […]
FIG. 16C is a graph showing survival of transfected neurons in three sister cultures was monitored and compared. […]

## C=C(C)[C@H]1CN[C@H](C(=O)O)[C@H]1CC(=O)O [kainic acid]
GFP transfected neurons
  morphology of GFP transfected neurons in response to the neurotoxin: cell bodies of GFP transfected neurons rounded and swelled and their neurites began to retract
[1]
  neuronal survival (number of surviving GFP positive neurons): significant decrease in neuronal survival
